Measured values as given in PMC7822030, “Hybrid Inhibitors of DNA Gyrase A and B: Design, Synthesis and Evaluation” (Pharmaceutics, 2020).
Read-outs that look alike come from different tables or passages of the source.

What was measured:
E. coli BW25113 ΔtolC = type: cell-based, Escherichia coli
Source text: (§1) E. coli MG1655 originated from the laboratory collection of Dr. Csaba Pál. […] E. coli K-12 BW25113 single-gene knockout mutant lines ΔdapF, ΔmrcB, ΔsurA, ΔacrB and ΔtolC originated form the Keio collection copy owned by the laboratory of Dr. Csaba Pál.
(§2) Cation-adjusted Mueller Hinton II broth (MHBII) was used for growth of the bacteria under standard laboratory conditions, for antimicrobial susceptibility tests, and for selection of resistant variants. To prepare the MHBII broth, 22 g MHBII powder (containing 3 g beef extract, 17.5 g acid hydrolysate of casein, 1.5 g starch; Becton, Dickinson and Co., Franklin Lakes, NJ, USA) was dissolved in 1 L water. MHBII agar was prepared by addition of 14 g agar (Bacto; Molar Chemicals, Halásztelek, Hungary) to 1 L broth.
(§3) Minimum inhibitory concentrations (MICs) were determined using a standard serial broth microdilution technique, according to the Clinical and Laboratory Standards Institute guidelines. […] For Enterococcus sp., the cells were plated in BHI agar plates, and BHI broth was used to determine the MICs. […] Following the dilutions, each well was seeded with 5 × 10^4 bacterial cells. Each measurement was performed in three parallel replicates, and to avoid possible edge effects in the microwell plates, the outside rows (A, H) were filled with sterile medium. Following the inoculations, the plates were covered with the lids and wrapped in polyethylene plastic bags, to minimize evaporation but to allow O2 transfer. […] After incubation, the OD600 of each well was measured using a microplate reader (Synergy 2; Biotek, Winooski, VT, USA).

E. coli BW25113 ΔmrcB = type: cell-based, Escherichia coli
Source text: as §1, §2, §3

E. coli BW25113 ΔacrB = type: cell-based, Escherichia coli
Source text: as §1, §2, §3

E. coli BW25113 ΔdapF = type: cell-based, Escherichia coli
Source text: as §1, §2, §3

E. coli BW25113 ΔsurA = type: cell-based, Escherichia coli
Source text: as §1, §2, §3

P. aeruginosa ATCC 27863 = experiment: MIC broth microdilution, P. aeruginosa; type: cell-based; conditions: Pseudomonas aeruginosa
Source text: as §1, §2, §3

A. baumannii ATCC 17978 = experiment: MIC broth microdilution, A. baumannii; type: cell-based; conditions: Acinetobacter baumannii, ATCC17978, read-out: MIC A. baumannii ATCC #
Source text: as §1, §2, §3

[1] = system: E. cloacae spp. cloacae ATCC 13047; experiment: MIC broth microdilution, E. cloacae; type: cell-based, Enterobacter cloacae; conditions: Enterobacter cloacae, ATCC13047, read-out: MIC E. cloacae spp. cloacae ATCC #
K. pneumoniae ATCC 10031 = experiment: MIC broth microdilution, K. pneumoniae; type: cell-based; conditions: Klebsiella pneumoniae, ATCC10031, read-out: MIC K. pneumoniae ATCC #
Source text: as §1, §2, §3

E. coli MG1655 WT = experiment: MIC, E. coli MG1655 wild-type with PAβN; type: cell-based, Escherichia coli; conditions: for MIC: Escherichia coli, MG1655, read-out: Minimum Inhibitory Concentration E. coli MG# WT, 50 µg/mL PAβN, molar conversion in parentheses; for Minimum Inhibitory Concentration E. coli MG1655 WT: in the presence of 50 µg/mL PAβN
Source text: as §1, §2
as §3, with “USA). […]” for “USA).”

E. coli DNA gyrase = biological target: T1, E. coli DNA gyrase (Escherichia coli, UniProt P0AES4+P0AES6); experiment: E. coli DNA gyrase supercoiling assay; type: biochemical
T1 construct: purchased Inspiralis, Norwich, UK
Method: (§4) The assay for determination of the IC50 values was performed according to previously reported procedures.
(§5) Briefly, inhibitory activities were determined using supercoiling (for DNA gyrase) and relaxation (for topoisomerase IV) assay kits (Inspiralis, Norwich, UK) on streptavidin-coated 96-well microtiter plates from Thermo Scientific Pierce (Thermo Fisher Scientific, Waltham, MA, USA). First, the plates were rehydrated with Wash Buffer and the biotinylated oligonucleotide TFO1 was then immobilized. After washing off the unbound oligonucleotide with Wash Buffer, the enzyme assay was performed. Into each well was added 24 µL of mixture containing 6 µL of Assay Buffer (containing ATP), 0.75 µL of relaxed (for E. coli DNA gyrase supercoiling assay) or supercoiled (for E. coli topoisomerase IV relaxation assay) pNO1 plasmid and 17.25 µL of water. Additionally, 3 µL of a solution of the inhibitor in 10% DMSO containing 0.008% Tween 20 and 3 µL of enzyme (1.5 U) in Dilution Buffer were also added to the wells. […] The TF buffer was added to terminate the enzymatic reaction and after additional incubation for 30 min at room temperature, which allowed for triplex formation (biotin–oligonucleotide–plasmid), the unbound plasmid was washed off using TF buffer. Promega Diamond dye in T10 buffer was then added. […] Here, the compounds were diluted using 2-fold serial dilution steps of the given compound. GraphPad Prism 6.0 software was used to calculate the IC50 values, which were determined in at least two independent measurements, and their means are given as the final result. […] Dose-response curves can be found in Supplementary Materials.

E. coli topoisomerase IV = biological target: T2, E. coli topoisomerase IV (Escherichia coli, UniProt P0AFI2+P20083); experiment: E. coli topoisomerase IV relaxation assay; type: biochemical; conditions: for Inhibition of topoisomerase IV (in words): relaxation assay
T2 construct: purchased Inspiralis, Norwich, UK
Method: as §4, §5

E. coli BW25113 WT = experiment: MIC, E. coli BW25113 wild-type; type: cell-based; conditions: Escherichia coli, BW25113, read-out: Minimum Inhibitory Concentration E. coli BW# WT
Source text: as §1, §2, §3

[2] = system: E. coli MG1655 GyrA S83L, D87N ParC S80I, E84G; experiment: microbe, parasite or virus in culture; type: cell-based, Escherichia coli; conditions: for MIC: Escherichia coli, MG1655, read-out: Minimum Inhibitory Concentration E. coli MG# GyrA S83L, D87N ParC S80I, E84G; for Minimum Inhibitory Concentration E. coli MG1655 GyrA S83L, D87N ParC S80I, E84G: in the presence of 50 µg/mL PAβN
Source text: as §1, §2, §3
(§6) These mutated amino acids are the most common sites for target-based resistance in E. coli.

[3] = system: E. coli MG1655 GyrB R136C; experiment: microbe, parasite or virus in culture; type: cell-based, Escherichia coli; conditions: for MIC: Escherichia coli, MG1655, read-out: Minimum Inhibitory Concentration E. coli MG# GyrB R#C; for Minimum Inhibitory Concentration E. coli MG1655 GyrB R136C: in the presence of 50 µg/mL PAβN
Source text: as §1, §2, §3, §6

E. coli ATCC 25922 = experiment: MIC broth microdilution, E. coli ATCC 25922; type: cell-based; conditions: Escherichia coli, ATCC25922, read-out: MIC E. coli ATCC #
Source text: as §1, §2, §3

[4] = molar conversion in parentheses
[5] = ATCC27863, 18 h, read-out: MIC P. aeruginosa ATCC #
[6] = ATCC27863, read-out: MIC P. aeruginosa ATCC #, molar conversion in parentheses, read-out: MIC P. aeruginosa ATCC 27863

SMILES	Minimum Inhibitory Concentration E. coli BW25113 ΔtolC (E. coli BW25113 ΔtolC; efflux pump mutant) [µg/mL]	Minimum Inhibitory Concentration E. coli BW25113 ΔtolC (E. coli BW25113 ΔtolC; [4])	Minimum Inhibitory Concentration E. coli BW25113 ΔmrcB (E. coli BW25113 ΔmrcB; impaired cell-wall mutant) [µg/mL]	Minimum Inhibitory Concentration E. coli BW25113 ΔmrcB (E. coli BW25113 ΔmrcB; [4])	Minimum Inhibitory Concentration E. coli BW25113 ΔacrB (E. coli BW25113 ΔacrB; efflux pump mutant) [µg/mL]	Minimum Inhibitory Concentration E. coli BW25113 ΔacrB (E. coli BW25113 ΔacrB; [4])	Minimum Inhibitory Concentration E. coli BW25113 ΔdapF (E. coli BW25113 ΔdapF; impaired cell-wall mutant) [µg/mL]	Minimum Inhibitory Concentration E. coli BW25113 ΔdapF (E. coli BW25113 ΔdapF; [4])	Minimum Inhibitory Concentration E. coli BW25113 ΔsurA (E. coli BW25113 ΔsurA; impaired cell-wall mutant) [µg/mL]	Minimum Inhibitory Concentration E. coli BW25113 ΔsurA (E. coli BW25113 ΔsurA; [4])	MIC (P. aeruginosa ATCC 27863; [5]) [µg/mL]	MIC (P. aeruginosa ATCC 27863; [6]) [µM]	MIC (A. baumannii ATCC 17978; broth microdilution, 18 h) [µg/mL]	MIC (A. baumannii ATCC 17978; [4]) [µM]	MIC ([1]; broth microdilution, 18 h) [µg/mL]	MIC [1, 4] [µM]	MIC (K. pneumoniae ATCC 10031; broth microdilution, 18 h) [µg/mL]	MIC (K. pneumoniae ATCC 10031; [4]) [µM]	MIC (E. coli MG1655 WT) [µM]	Minimum Inhibitory Concentration E. coli MG1655 WT (E. coli MG1655 WT) [µg/mL]	other results
Cc1[nH]c(C(=O)Nc2nc3ccc(C(=O)N4CCN(c5cc6c(cc5F)c(=O)c(C(=O)O)cn6C5CC5)CC4)cc3s2)c(Cl)c1Cl [Compound 3a, 1-Cyclopropyl-7-(4-(2-(3,4-dichloro-5-methyl-1H-pyrrole-2-carboxamido)benzo[d]thiazole-6-carbonyl)piperazin-1-yl)-6-fluoro-4-oxo-1,4-dihydroquinoline-3-carboxylic acid]	1	(1.46 µM)	4	(5.85 µM)	4	(5.85 µM)	4	(5.85 µM)	4	(5.85 µM)	64	93.6	16	23.4	4	5.85	0.5	0.73	0.73	0.5	MIC change, ΔtolC mutant versus wild-type E. coli BW25113 (E. coli BW25113 ΔtolC; improvement of MIC in impaired efflux pump mutant): 4 fold; IC50 (E. coli DNA gyrase): 450 ± 180 nM; IC50 (E. coli topoisomerase IV): 1000 ± 150 nM; Inhibition of topoisomerase IV (in words) (E. coli topoisomerase IV): low micromolar; MIC (E. coli BW25113 WT; [4]): 5.85 µM; MIC (E. coli BW25113 WT; wild-type): 4 µg/mL; MIC [2]: 23.4 µM; Minimum Inhibitory Concentration E. coli MG1655 GyrA S83L, D87N ParC S80I, E84G [2]: 16 µg/mL; MIC [3]: 0.73 µM; Minimum Inhibitory Concentration E. coli MG1655 GyrB R136C [3]: 0.5 µg/mL; melting point: > 300 °C; MIC (E. coli ATCC 25922; broth microdilution, 18 h): 2 µg/mL; MIC (E. coli ATCC 25922; [4]): 2.93 µM
Cc1[nH]c(C(=O)Nc2nc3c(OCc4ccccc4)cc(C(=O)N4CCN(c5cc6c(cc5F)c(=O)c(C(=O)O)cn6C5CC5)CC4)cc3s2)c(Cl)c1Cl [Compound 3b, 7-(4-(4-(Benzyloxy)-2-(3,4-dichloro-5-methyl-1H-pyrrole-2-carboxamido)benzo[d]thiazole-6-carbonyl)piperazin-1-yl)-1-cyclopropyl-6-fluoro-4-oxo-1,4-dihydroquinoline-3-carboxylic acid]	16	(20.3 µM)	>64	(>81.0 µM)	>64	(>81.0 µM)	>64	(>81.0 µM)	>64	(>81.0 µM)	> 64	> 81	> 64	> 81	> 64	> 81	> 64	> 81	81	64	IC50 (E. coli DNA gyrase): 3300 ± 1500 nM; IC50 (E. coli topoisomerase IV): > 10000 nM; Inhibition of topoisomerase IV (in words) (E. coli topoisomerase IV): lack of activity; MIC (E. coli BW25113 WT; [4]): > 81 µM; MIC (E. coli BW25113 WT; wild-type): > 64 µg/mL; MIC [2]: > 81 µM; Minimum Inhibitory Concentration E. coli MG1655 GyrA S83L, D87N ParC S80I, E84G [2]: >64 µg/mL; MIC [3]: 40.5 µM; Minimum Inhibitory Concentration E. coli MG1655 GyrB R136C [3]: 32 µg/mL; melting point: > 300 °C; MIC (E. coli ATCC 25922; broth microdilution, 18 h): > 64 µg/mL; MIC (E. coli ATCC 25922; [4]): > 81 µM
